Activity and IC50 data for 17 compounds are collected here from ChEMBL document CHEMBL1139973, “Synthesis and structure-activity relationships of taxuyunnanine C derivatives as multidrug resistance modulator in MDR cancer cells” (Bioorg Med Chem Lett, 2007).

Data set [1] addresses T1, ATP-dependent translocase ABCB1 (Homo sapiens, UniProt P08183). Description: Inhibition of Pgp in multidrug-resistant human 2780AD cells assessed as calcein accumulation at 0.25 ug/mL relative to control. In kind it is cell-based. The arrangement: scale not given: the % may be the effect or the level left. Conditions: a2780 adr.
Data set [2] deals with T1, ATP-dependent translocase ABCB1. Kind of data set: Inhibition of Pgp in multidrug-resistant human 2780AD cells assessed as calcein accumulation at 25 ug/mL relative to control. The arrangement: scale not given: the % may be the effect or the level left. The following applies: a2780 adr. In kind it is cell-based.
Data set [3] can be described thus: Growth inhibition of human WI38 cells. In kind it is cell-based. The following applies: WI-38.
Data set [4] concerns WI-38 VA13. Kind of data set: Growth inhibition of human VA13 cells. In kind it is functional, cell-based.
Data set [5] has as its system HepG2. Description: Growth inhibition of human HepG2 cells. In kind it is functional, cell-based.
Data set [6] addresses T1, ATP-dependent translocase ABCB1. Description: Inhibition of Pgp in multidrug-resistant human 2780AD cells assessed as calcein accumulation at 2.5 ug/mL relative to control. In kind it is cell-based. Further details: scale not given: the % may be the effect or the level left. The following applies: a2780 adr.

pIC50: −log10 of the molar value.

T1 sequence (P08183 whole entry): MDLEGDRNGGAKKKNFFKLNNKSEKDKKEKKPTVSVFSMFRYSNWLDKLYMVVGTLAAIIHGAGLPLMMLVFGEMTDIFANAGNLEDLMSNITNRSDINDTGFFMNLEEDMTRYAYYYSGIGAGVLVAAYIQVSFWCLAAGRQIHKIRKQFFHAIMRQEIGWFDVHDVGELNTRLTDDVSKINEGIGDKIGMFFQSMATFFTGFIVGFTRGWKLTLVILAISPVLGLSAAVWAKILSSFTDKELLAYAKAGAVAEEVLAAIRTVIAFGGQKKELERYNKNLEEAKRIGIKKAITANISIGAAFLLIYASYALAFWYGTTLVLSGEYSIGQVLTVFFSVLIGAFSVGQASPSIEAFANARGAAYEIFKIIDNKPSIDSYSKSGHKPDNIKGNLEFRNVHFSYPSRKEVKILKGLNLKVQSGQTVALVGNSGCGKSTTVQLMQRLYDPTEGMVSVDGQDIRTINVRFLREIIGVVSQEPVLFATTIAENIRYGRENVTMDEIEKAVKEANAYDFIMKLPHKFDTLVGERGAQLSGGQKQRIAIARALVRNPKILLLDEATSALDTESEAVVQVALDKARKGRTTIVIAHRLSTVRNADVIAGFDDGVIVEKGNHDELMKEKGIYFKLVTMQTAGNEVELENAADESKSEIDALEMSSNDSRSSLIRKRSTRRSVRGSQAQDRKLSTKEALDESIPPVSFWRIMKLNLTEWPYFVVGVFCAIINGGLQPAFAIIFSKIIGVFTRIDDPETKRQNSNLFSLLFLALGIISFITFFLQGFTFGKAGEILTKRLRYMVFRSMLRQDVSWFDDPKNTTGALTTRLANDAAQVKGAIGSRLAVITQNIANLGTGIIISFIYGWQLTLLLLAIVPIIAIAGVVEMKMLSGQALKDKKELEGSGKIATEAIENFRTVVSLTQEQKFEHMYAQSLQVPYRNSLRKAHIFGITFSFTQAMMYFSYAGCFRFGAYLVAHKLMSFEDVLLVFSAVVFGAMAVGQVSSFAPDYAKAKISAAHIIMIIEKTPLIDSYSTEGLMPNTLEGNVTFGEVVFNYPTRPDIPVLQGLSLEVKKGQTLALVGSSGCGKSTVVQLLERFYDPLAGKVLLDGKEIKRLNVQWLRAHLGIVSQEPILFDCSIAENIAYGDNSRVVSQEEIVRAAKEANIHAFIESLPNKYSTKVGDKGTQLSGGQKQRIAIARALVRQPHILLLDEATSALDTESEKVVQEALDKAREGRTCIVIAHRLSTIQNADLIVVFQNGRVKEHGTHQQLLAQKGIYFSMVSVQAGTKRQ

By pIC50 is commonly meant −log10 of the IC50, conventionally taken in molar units. For the compound `C=C1[C@@H](OC(=O)/C=C/c2ccccc2)CC[C@@]2(C)C[C@H](OC(C)=O)C3=C(C)C[C@H](OC(C)=O)[C@@H]([C@@H](OC(C)=O)[C@H]12)C3(C)C`, the Activity in data set [1] is given as 102%; in data set [2], 121%; in data set [6], 95%. For the same compound, the values for the pIC50 in data set [3], in data set [4] and in data set [5] were 4.00, 3.90 and 5.00, respectively.
Take `C=C1[C@@H](OC(C)=O)CC[C@@]2(C)C[C@H](OC(C)=O)C3=C(C)C[C@H](OC(=O)CCC)[C@@H]([C@@H](OC(C)=O)[C@H]12)C3(C)C`: the Activity in data set [1] was 97%; in data set [2], 114%; in data set [6], 98%. The pIC50 was 4.13 in data set [3], 4.76 in data set [4] and 4.73 in data set [5].
As for `C=C1[C@@H](OC(C)=O)CC[C@@]2(C)C[C@H](OC(C)=O)C3=C(C)C[C@H](OC(=O)CCCC)[C@@H]([C@@H](OC(C)=O)[C@H]12)C3(C)C`, the values for the Activity in data set [1], in data set [2] and in data set [6] were 94%, 111% and 88%, respectively. Also, the results for the pIC50 in data set [3], in data set [4] and in data set [5] were below 3.74, 4.25 and 4.78, respectively.
With `C=C1[C@@H](OC(C)=O)CC[C@@]2(C)C[C@H](OC(C)=O)C3=C(C)C[C@H](OC(C)=O)[C@@H]([C@@H](OC(=O)c4ccccc4)[C@H]12)C3(C)C`, the Activity is listed as 98% in data set [1], 125% in data set [2] and 96% in data set [6]. In addition, the pIC50 is 3.90 in data set [3], 3.76 in data set [4] and 4.28 in data set [5].
On to `C=C1[C@@H](OC(C)=O)C[C@H](O)[C@@]2(C)C[C@H](OC(C)=O)C3=C(C)C[C@H](OC(=O)C(C)CC)[C@@H]([C@@H](OC(C)=O)[C@H]12)C3(C)C` (some centres not stated), for which the values for the Activity in data set [1], in data set [2] and in data set [6] were 94%, 110% and 98%, respectively. Besides, the pIC50 in data set [3] was 4.09; in data set [4] it was 4.10; in data set [5], 4.12.
Regarding `C=C1[C@@H](OC(C)=O)CC[C@@]2(C)C[C@H](OC(C)=O)C3=C(C)C[C@H](OC(=O)C(C)CC)[C@@H]([C@@H](OC(C)=O)[C@H]12)C3(C)C` (some centres not stated), the Activity is 100% in data set [1], 119% in data set [2] and 86% in data set [6]. The results for the pIC50 in data set [3], in data set [4] and in data set [5] were below 3.74, 4.21 and 4.38, respectively.
Turning to `C=C1[C@@H](OC(C)=O)CC[C@@]2(C)[C@@H](OC(=O)/C=C/c3ccccc3)[C@H](OC(C)=O)C3=C(C)C[C@H](OC(C)=O)[C@@H]([C@@H](OC(C)=O)[C@H]12)C3(C)C`, the Activity is 102% in data set [1], 125% in data set [2] and 103% in data set [6]. The pIC50 in data set [3] is 3.82; in data set [4], below 3.81; in data set [5], below 3.81.
On to `C=C1[C@@H](OC(C)=O)CC[C@@]2(C)C[C@H](OC(C)=O)C3=C(C)C[C@H](OC(=O)C(C)C(C)O)[C@@H]([C@@H](OC(C)=O)[C@H]12)C3(C)C` (some centres not stated) [YUNNANXANE], for which the Activity in data set [1] was 81%; in data set [2], 168%; in data set [6], 94%. The results for the pIC50 in data set [3], in data set [4] and in data set [5] were 4.10, 5.03 and 4.73, respectively.
For `C=C1[C@@H](O)CC[C@@]2(C)C[C@H](OC(C)=O)C3=C(C)C[C@H](OC(C)=O)[C@@H]([C@@H](OC(C)=O)[C@H]12)C3(C)C`, the values for the Activity in data set [1], in data set [2] and in data set [6] were 118%, 141% and 118%, respectively. In addition, the pIC50 in data set [3] was 3.83; in data set [4], 3.98; in data set [5] it was 3.74.
As to `C=C1[C@@H](OC(C)=O)CC[C@@]2(C)C[C@H](OC(C)=O)C3=C(C)C[C@H](OC(=O)CC)[C@@H]([C@@H](OC(C)=O)[C@H]12)C3(C)C`, the Activity in data set [1] is on record as 104%; in data set [2], 119%; in data set [6] it was 98%. Besides, the pIC50 in data set [3] was below 3.71; in data set [4], 4.03; in data set [5], 4.06.
For the compound `C=C1[C@@H](OC(C)=O)CC[C@@]2(C)C[C@H](OC(C)=O)C3=C(C)C[C@H](OC(=O)C(C)C)[C@@H]([C@@H](OC(C)=O)[C@H]12)C3(C)C`, the values for the Activity in data set [1], in data set [2] and in data set [6] were 133%, 148% and 139%, respectively. Moreover, the pIC50 was below 3.73 in data set [3], 4.04 in data set [4] and 4.55 in data set [5].
For `C=C1[C@@H](OC(C)=O)C[C@H](OC(=O)/C=C/c2ccccc2)[C@@]2(C)C[C@H](OC(C)=O)C3=C(C)C[C@H](OC(=O)C(C)C(C)O)[C@@H]([C@@H](OC(C)=O)[C@H]12)C3(C)C` (some centres not stated), the Activity in data set [1] was 97%; in data set [2] it was 130%; in data set [6], 102%. The pIC50 in data set [3] was 4.20; in data set [4], 4.30; in data set [5], 4.09.
Take `C=C1[C@@H](OC(C)=O)CC[C@@]2(C)C[C@H](OC(C)=O)C3=C(C)C[C@H](OC(C)=O)[C@@H]([C@@H](OC(C)=O)[C@H]12)C3(C)C` [TAXUYUNNANINE C]: the Activity in data set [1] was 130%; in data set [2] it was 127%; in data set [6] it was 141%. In addition, the values for the pIC50 in data set [3], in data set [4] and in data set [5] were 3.89, 4.27 and 4.73, respectively.
Turning to `C=C1[C@@H](OC(C)=O)CC[C@@]2(C)C[C@H](OC(C)=O)C3=C(C)CC[C@@H]([C@@H](OC(C)=O)[C@H]12)C3(C)C`, the figures for the Activity in data set [1], in data set [2] and in data set [6] were 89%, 91% and 105%, respectively. Besides, the negative logarithm of the IC50 (pIC50) in data set [3] is 5.05; in data set [4] it was 4.91; in data set [5], 4.99.
As for `C=C1[C@@H](OC(C)=O)C[C@H](OC(=O)/C=C/c2ccccc2)[C@@]2(C)C[C@H](OC(C)=O)C3=C(C)C[C@H](OC(=O)C(C)CC)[C@@H]([C@@H](OC(C)=O)[C@H]12)C3(C)C` (some centres not stated), the Activity in data set [1] was 96%; in data set [2] it was 102%; in data set [6], 98%. Besides, the pIC50 in data set [3], in data set [4] and in data set [5] was below 3.84 throughout.
As for `C=C1[C@@H](OC(C)=O)CC[C@@]2(C)C[C@H](OC(C)=O)C3=C(C)C[C@H](OC(=O)c4ccccc4)[C@@H]([C@@H](OC(C)=O)[C@H]12)C3(C)C`, the Activity is recorded as 90% in data set [1], 133% in data set [2] and 107% in data set [6]. Also, the pIC50 is below 3.75 in data set [3], below 3.75 in data set [4] and 3.84 in data set [5].
Turning to `C=C1[C@@H](OC(C)=O)C[C@H](O)[C@@]2(C)C[C@H](OC(C)=O)C3=C(C)C[C@H](OC(=O)C(C)C(C)O)[C@@H]([C@@H](OC(C)=O)[C@H]12)C3(C)C` (some centres not stated), the Activity in data set [1] is 87%; in data set [2] it was 107%; in data set [6], 104%. Further, the pIC50 is 3.85 in data set [3], below 3.76 in data set [4] and 3.82 in data set [5].
